According to patent US5366975A, “Invertebrate phenylethanolamine transporter and the use thereof” (priority 1992, dated 1994):
Counter-ions that a name gives are not always drawn. Like-named read-outs stand apart in the source and are kept apart here.

Experiments:
[1] = system: tobacco hornworms (Manducca sexta); set-up: species or system Manduca sexta; conditions: in vivo
adenylate cyclase = conditions: cockroach, a resistant species; cited from earlier work
Gs -coupled OA receptors = conditions: Manduca, a sensitive species; cited from earlier work
[2] = system: octopamine reuptake transporter; type: cell-based, Blaberus; conditions: 100 μM cocaine; ±S.E.M. of triplicate determinations; control 13.6±1.7
mosquito larvae = test: Antilarval activity on mosquito larvae; type: in vivo
Description: Five to ten 2-5-day old mosquito larvae, reared from eggs, were placed in small bottles containing 3 ml of water, 2 ml of air space, and a perforated cap open to the air. The compound of interest was dissolved in water or appropriate solvent and added to make a final concentration of from 0.00001 to 1%. The bottles were capped and observed at daily intervals for the number of living larvae, pupae, and emerging adults. After two weeks, the final number of adults emerging as a percentage, relative to control, is plotted as a function of drug concentration.

Manducca eggs = test: Ovicidal assay; type: in vivo, Manduca sexta; conditions: 3% cocaine
Description: Test agents were tested for ovicidal activity by dipping groups of 10-50 Manducca eggs in drug solutions for 60 seconds and then determining the percentage of eggs which produced viable larvae. Alternatively, the eggs may be sprayed with the test agent and then placed on artificial media to hatch. A compound with active ovicidal activity was one which decreased the percentage of eggs hatched, relative to control.

[3] = system: octopamine reuptake transporter; type: biochemical, cockroach
firefly lantern = test: Firefly lantern assay (OA-stimulated light emission); type: in vivo, P. pyralis; conditions: fixed dose of cocaine injected simultaneously with OA into isolated firefly tails; zero Ca++/high Mn++
Excerpt: To measure the effects of drugs on firefly light emission, an isolated tail (terminal 3 abdominal segments containing the light organ) of a fresh adult P. pyralis male was mounted on a […] stainless steel needle and placed at the focal point of an optical system connected to a photometer-photomultiplier-chart recorder combination (see Nathanson, J. A., Characterization of octopamine-sensitive adenylate cyclase: Development of a potent and selective class of octopamine-2 receptor agonists with toxic effects in insects, Proc. Natl. Acad. Sci. U.S.A. 82: 599-603 (1985)). Drug (dissolved in insect saline, see Carlson, A.D., Effect of adrenergic drugs on the lantern of the larvae of the Photinus firefly, J. Exp. Biol. 48: 381-387 (1968)) was injected (3-5 μl) into the abdominal cavity dorsal to the lantern and light emission was recorded for 45 minutes or until it peaked, following which the next (larger) dose of drug was injected. In the case of animals injected with drugs other than octopamine, following the last dose, […] of octopamine (a maximally effective dose) was injected. Light production is expressed as radiance, each unit approximately equal to 1.6 nanowatts, as measured in a solid angle of 0.033 steradiants. […]

Row | Molecule | % leaf remaining [1] [%] | RANK ORDER ANTIFEEDING EFFECT IN MANDUCA [1] | antifeeding effect [1] | also measured
1 | 1-(2-[bis-(4-fluorophenyl)methoxy]ethyl)-4-(3-phenyl-2-propenyl)piperazine [GBR 12909] | ~95 | GBR > COC = DMI = AMT > DSP = XYL = |  | 
2 | NCCc1c[nH]c2ccc(O)cc12 [5-HT, serotonin] |  |  |  | antifeeding effect compared to OA [1]: significantly weaker than OA
3 | CN(C)CCC=C1c2ccccc2CCc2ccccc21 [AMT, amitriptyline] | ~100 | GBR > COC = DMI = AMT > DSP = XYL = |  | 
4 | NCCc1ccc(O)c(O)c1 [DA, dopamine] |  |  | no antifeeding effects | antifeeding effect of addition to cocaine [1]: no further increase in antifeeding effect
5 | Cc1cc(Cl)ccc1N=CN [DDCDM, didemethylchlordimeform] |  |  |  | potency in activating adenylate cyclase relative to OA (adenylate cyclase): much weaker than OA; potency relative to OA (full OA agonist) (Gs -coupled OA receptors): 20 fold
6 | CNCCCN1c2ccccc2CCc2ccccc21 [DMI, desmethylimipramine] | ~80 | GBR > COC = DMI = AMT > DSP = XYL = |  | 
7 | CCN(CCCl)Cc1ccccc1Br [DSP-4] | ~100 | GBR > COC = DMI = AMT > DSP = XYL = |  | 
8 | COC(=O)C1=CC[C@@H]2CC[C@H]1N2C [Ecgonidine methyl ester mesylate, (1 R)-8-methyl-8-azabicyclo[3,2,1]oct-2-ene-2-carboxylic acid methyl ester mesylate] |  |  | no antifeeding effect | 
9 | CN1[C@H]2CC[C@@H]1[C@@H](C(=O)O)[C@H](O)C2 [Ecgonine hydrochloride, (-)-beta-hydroxy-1-alpha-H, 5-alpha-H-tropane-2-beta-carboxlic acid hydrochloride] |  |  | no antifeeding effect | 
10 | NC[C@H](O)c1ccc(O)c(O)c1 [NE, norepinephrine] |  |  |  | antifeeding effect compared to OA [1]: significantly weaker than OA
11 | COC(=O)[C@H]1[C@@H](OC(=O)c2ccccc2)C[C@@H]2CC[C@H]1N2C [cocaine] |  | GBR > COC = DMI = AMT > DSP = XYL = |  | total uptake of octopamine [2]: 9.6 ±1.4 pmol/mg protein; percent larvae surviving to mature adulthood (mosquito larvae; 0.01% cocaine in water): approximately 50%; adults produced (mosquito larvae; 0.1% cocaine in water): no adults were produced; behavior of larvae on sprayed leaves [1]: marked behavioral abnormalities; time after which animals died [1]: 48 to 72 h; percent dead ova (Manducca eggs): greater than 95%; inhibition of sodium-dependent octopamine uptake ([3]; 10 μM cocaine): about 25%; inhibition of sodium-dependent octopamine uptake ([3]; 100 μM cocaine): about 68%; leftward shift in the OA dose-response curve (factor) (firefly lantern): about 10
12 | CN1CCC(=C2c3ccccc3C=Cc3ccccc32)CC1 [cyproheptadine] | ~55 |  |  | 
13 | CNCCC(Oc1ccc(C(F)(F)F)cc1)c1ccccc1 (stereo not drawn) [fluoxetine] | ~85 | FLUOX >>MAZ |  | 
14 | CCN(CC)CC(=O)Nc1c(C)cccc1C [lidocaine] |  |  |  | antifeeding inhibition [1]: 15%
15 | OC1(c2ccc(Cl)cc2)c2ccccc2C2=NCCN21 (stereo not drawn) [mazindol] |  | FLUOX >>MAZ | no antifeeding activity | 
16 | CCN(CC)CCOC(=O)c1ccc(N)cc1 [procaine] |  |  | only lidocaine showed any activity | 
